Test results published in US10166271B2, “Methods for promoting hair growth” (THE REGENTS OF THE UNIVERSITY OF CALIFORNIA, priority 2006, dated 2019).

Key:
CRF1/CRF2 receptor = CRF1/CRF2 receptor antagonist; stated without test; cited from earlier work
CRF-OE mice [1] = assay: Long-term hair growth after sc injection in alopecic female CRF-OE mice (Example 5); assay type: in vivo; details: two female CRF-OE mice; sc 5 μg/day x 5 days; four months after the final injection
Protocol: Two female CRF-OE mice, which had fully developed alopecia, received a single daily subcutaneous injection of 5 μg astressin B (in 0.1 ml saline) in the back for five consecutive days. Four (4) months after the final injection, the growth of hair on the backs of both mice was scored 9 out of 10. Similarly, two out of four male CRF-OE mice received intraperitoneal injection of 5 μg astressin B for five consecutive days. Thus, the mice not only grew hair in a previously bald (or balding) region, but such hair was maintained for months without on-going treatment.

ACTH release = details: adrenalectomized rats; similar doses; Rivier et al. 1999; cited from earlier work
young CRF-OE mice [2] = assay: Cyclic CRF antagonists, prevention of hair loss in young CRF-OE mice (Example 11); assay type: in vivo; details: at least four weeks after the final administration
Source text: (§1) Although mice are particularly described, one skilled in the art will appreciate that other laboratory animals and human subjects can be used, and doses adjusted accordingly (for example based on the weight of the subject, or the area to which the peptide is to be applied). Similarly, although particular modes of administration are described, one will appreciate that variations can be made (such as those disclosed herein and those known in the art).
(§2) Any method of administration can be used, including injection, transdermal/topical delivery, or combinations thereof.
(§3) In one example, therapeutic peptides are administered via injection. For example, mice can be injected subcutaneously or intraperitoneally with at least 0.05 μg, at least 0.5 μg, at least 5 μg, at least 50 μg, or at least 500 μg of one or more therapeutic peptides (for example 0.5-50 μg peptide, 0.5-10 μg peptide, or 5 μg peptide). The peptide can be administered in 0.1 ml sterile saline (or 5% mannitol) once per day for at least 5 consecutive days, such as at least 10 days, at least 30 days, or at least 60 days. […] As a negative control, CRF-OE mice receive saline alone (such as 10-100 μl) or 5 μg astressin 2B in 0.1 ml saline.
(§4) In another example, therapeutic peptides are administered topically or transdermally. […]

young CRF-OE mice [3] = assay: Astressin B fragments, prevention of hair loss in young CRF-OE mice (Example 9); assay type: in vivo; details: 5 μg sc or ip x 5 days, all time points
Protocol: CRF-OE mice similarly injected with 0.1 ml saline alone (or 5 μg astressin 2B in 0.1 ml saline) are used as negative controls. Astressin B fragments are as described in Example 8.

CRF-OE mice [4] = assay: Cyclic CRF antagonists, hair growth in adult alopecic CRF-OE mice (Example 10); assay type: in vivo; details: at least four weeks after the final administration
Source text: as §1, with “Similarly” for “Similarly,”
as §2, §3, §4

[5] = similar doses; Rivier et al. 2002; cited from earlier work
CRF-OE mice [6] = assay: Subcutaneous implanted mini-pump in CRF-OE mice, hair growth; assay type: in vivo; details: 10 μg/mouse/day for 7 days, implanted mini-pump sc; CRF-OE male and female mice 5-7 months old
Source text: Eight (8) out of 9 (89%) female mice responded to injected (sc) astressin B with increased pigmentation and hair growth. The remaining […] female mice were observed qualitatively. Similarly, 4 out of 4 (100%) of the male mice responded to astressin B with increased pigmentation and hair growth. In contrast, none of the astressin 2B-injected mice (0%) grew significant amounts of hair.

Substance	Duration of action (long acting) (CRF1/CRF2 receptor)	Growth of hair on the back, score out of 10 (CRF-OE mice [1])	Duration of inhibition of elevated ACTH release (ACTH release)	Hair in the test area (young CRF-OE mice [2])	Hair in the test area (young CRF-OE mice [3])	Hair in the test area (CRF-OE mice [4])	Duration of delay of gastric emptying [5]	Hair growth for 1 month post treatment (CRF-OE mice [6])
(cyclo 30-33)[DPhe12, Nle21,38, Cml27,40, Glu30, Lys33]Ac-h/rCRF9-41 [Astressin B]	≥ 24 h	9	over 12 hours					
cyclo(31-34)[DPhe11, His12, CαMeLeu13,39, Nle17, Glu31, Lys34]Ac-Sau(8-40) [Astressin 2B, reference compound]				ultimately develop alopecia in the test area	develop ultimately alopecia in the test area	remain bald in the test area	over 6 hours	no hair growth was observed
